We go through 9 molecules from publication PMC11487760, “Cross-Species Applications of Peptide Substrate Reporters to Quantitative Measurements of Kinase Activity” (ACS Measurement Science Au, 2024).

A short description of series [1]: Degradation assay in freeze-thaw lysates, T. thermophila B2086.2. The conditions noted are these: freeze–thaw lysate of vegetative T. thermophila B2086.2 cells, 3 mg/mL total protein in PBS, no protease inhibitors, 10 μM reporter, 25 °C, CE-LIF, first-order fit, ± SD, 3 biological replicates. It counts as in vitro ADME. The protocol:
(§1) Degradation assays were conducted as described previously.[38] Briefly, aliquots of vegetative cells were washed twice, resuspended in ice-cold phosphate buffered saline at a density of 2 × 10^8 cells/mL and lysed by three freeze–thaw cycles using liquid nitrogen. The resulting lysate was clarified by 5 min centrifugation at 15,000 × g, and the supernatant was stored at −80 °C. The total protein concentration was determined using a fluorescamine assay with a bovine serum albumin (BSA) calibration curve.[39] Briefly, three parts diluted lysate (or BSA standard) in 30 mM borate buffer (pH 9) and one part 3 mg/mL fluorescamine in acetone were incubated for 5 min in the dark at room temperature. The fluorescence at 475 nm was then measured using 390 nm excitation. Based on this assay, the lysate was diluted to a concentration of 3 mg/mL in phosphate buffered saline. The degradation reaction was run at 25 °C and initiated by addition of 10 μM reporter to the diluted lysate. At fixed time points, aliquots were removed, and the reaction was stopped by incubation for 4 min at 95 °C.
(§2) To study degradation kinetics, we fit the data for each full-length peptide to a first-order reaction model and determined the half-life for each peptide for three biological replicates (Figure 5b-d, Table 3). Degradation rates and half-lives varied widely between organisms and peptides; however, some general trends were apparent. For all peptides, degradation was much faster in T. thermophila than in D. discoideum. T. thermophila is known to produce and secrete cysteine proteases and is a large ([…]), fast-growing cell. […] Further characterization of protease expression in these strains may be helpful identifying the enzyme(s) primarily responsible for degradation of these reporters.

A short description of series [2]: Degradation assay in freeze-thaw lysates, D. discoideum. The format is in vitro ADME. The conditions noted are these: 10 μM reporter, 25 °C, CE-LIF. The procedure: as §1, §2
Series [3] deals with PKBA. The conditions noted are these: read-out: EC50 for PKBA in D. discoideum; cited from earlier work. The procedure: (§3) Next, we tested pharmacological treatment of D. discoideum. We treated cells for 1 min with 15 μM LY294002, a PI3K inhibitor. LY294002 has been shown previously to reduce PKBA activity in D. discoideum.[53],[55]−[57] […] The magnitude of this effect was quite similar for all three peptides; percent phosphorylation of cAMP-stimulated cells decreased to 33–34% of the untreated phosphorylation levels upon LY294002 treatment.

Series [4] concerns PKBA. The experiment in a line: Effect of LY294002 treatment on reporter phosphorylation in cAMP-stimulated D. discoideum. The format is cell-based. The conditions noted are these: 15 μM LY294002 for 1 min before cAMP stimulation; lysed 15 s after stimulation; 1 h social development; all three reporters; n = 3 biological replicates. The procedure:
as §3

The test system of series [5] is PKBA. The experiment in a line: Phosphorylation of peptide substrate reporters in D. discoideum lysates (CE-LIF). The format is biochemical. The conditions noted are these: lysates from chemotaxis-competent D. discoideum 20–30 s after 1 μM cAMP stimulation; 5 μM reporter, 2 mM ATP, 0.4–0.6 mg/mL protein, room temperature, lysis buffer with phosphatase and protease inhibitors; reactions with ≤10% total phosphorylation; MEKC CE-LIF. An excerpt: (§4) In addition to confirming that all three reporters were phosphorylated in lysates from both cell types, we also characterized the kinetics of the phosphorylation, which varied substantially between organisms. Using reactions with ≤10% total phosphorylation, we determined the phosphorylation rate for lysates from stimulated cells in units of zeptomoles of phosphorylated product per picogram of total protein per second (zmol pg^–1 s^–1; Table 2). […] For D. discoideum, B-5/I was the next most preferred substrate. This kinetic trend is similar to that observed in human cells. Crosstide and a truncated version of B-5/I have similar values for Vmax with human Akt1, but the KM value is about 5-fold lower for Crosstide.[25] The value of Vmax has not been determined for VI–B with Akt1, but its phosphorylation rate is known to be slower than that of B-5/I.[13]

The test system of series [6] is pancreatic cancer cell lines. The conditions noted are these: intact pancreatic cancer cell lines; cited from earlier work. The procedure: (§5) These rates are much higher than rates obtained in intact human prostate cancer cells (LNCaP, 0.04 zmol pg^–1 s^–1)[6] and pancreatic cancer cell lines (0.02–0.1 zmol pg^–1 s^–1)[28],[50] with the same reporter. Our assays were conducted in lysates containing phosphatase inhibitors, which will increase the apparent activity of PKB by removing the effects of any opposing phosphatases. Additionally, higher phosphorylation rates may arise from differing expression levels of PKB ...

Series [7] concerns intact human prostate cancer cells (LNCaP). The conditions noted are these: cited from earlier work. The procedure:
as §5

Series [8] concerns PHK5. Briefly: Phosphorylation of peptide substrate reporters in T. thermophila lysates (CE-LIF). It counts as biochemical. The conditions noted are these: lysates from T. thermophila 2 h into conjugation, 20–30 s after 2% proteose peptone; 5 μM reporter, 2 mM ATP, room temperature, lysis buffer with phosphatase and protease inhibitors; reactions with ≤10% total phosphorylation; MEKC CE-LIF. The procedure: For T. thermophila lysates, mating was induced by mixing equal cell numbers of B2086.2 and CU428.2 strains that had been starved for 16 h at 30 °C in unshaken Dryl’s buffer (2 mM phosphate buffer, 2 mM citrate, 1.5 mM CaCl2). Two hours after cells were mixed, microscopy was used to confirm that >75% of cells were paired. Samples were then lysed with an equal volume of ice-cold 2× lysis buffer, before and 30 s after addition of 20% proteose peptone stock to a final concentration of 2% or other stimuli as noted.
as §4

A short description of series [9]: Degradation assay in freeze-thaw lysates, T. thermophila CU428.2. The format is in vitro ADME. The conditions noted are these: T. thermophila strain CU428.2 freeze–thaw lysate, based on the first 5 min of each reaction; 3 mg/mL protein, 10 μM reporter, 25 °C, CE-LIF. The procedure: as §1
To study degradation kinetics, we fit the data for each full-length peptide to a first-order reaction model and determined the half-life for each peptide for three biological replicates (Figure 5b-d, Table 3). […]

The test system of series [10] is PHK5. The format is cell-based. The conditions noted are these: mating T. thermophila treated 20 s with 1 μM stimulus (2% for proteose peptone) prior to lysis; 15 min incubation of Crosstide in lysate; n = 2–3 biological replicates. The protocol:
For T. thermophila lysates, mating was induced by mixing equal cell numbers of B2086.2 and CU428.2 strains that had been starved for 16 h at 30 °C in unshaken Dryl’s buffer (2 mM phosphate buffer, 2 mM citrate, 1.5 mM CaCl2). […] Samples were then lysed with an equal volume of ice-cold 2× lysis buffer, before and 30 s after addition of 20% proteose peptone stock to a final concentration of 2% or other stimuli as noted.
The protein concentrations of lysates were determined using the fluorescamine assay described above, and lysates were diluted to the same final concentration (0.4–0.6 mg/mL) in 1× lysis buffer. […] Phosphorylation reactions were conducted in kinase buffer (25 mM MOPS, pH 7.4, 20 mM magnesium chloride, 25 mM glycerophosphate, 1 mM DTT).[41] The peptide substrate reporter was added to a final concentration of 5 μM, and the reaction was started by addition of a final concentration of 2 mM ATP. The reaction was run at room temperature and stopped by the addition of CE run buffer. Negative control experiments were performed by substituting deionized water for ATP or denaturing the lysate with heat before the addition of peptide.
Samples were analyzed using micellar electrokinetic chromatography (MEKC) in a PA-800 Plus capillary electrophoresis instrument (Beckman Coulter). […] The same buffer was used for phosphorylation assays of Crosstide. […] For all VI–B assays, the run buffer was 100 mM borate, 15 mM SDS, pH 11.4. The capillary was 50 μm diameter bare silica, 21 cm effective length with an applied potential of 400 V/cm. […] Peak integration was performed using 32 Karat (v. 10.1) software.
Cells were treated with a final concentration of 1 μM stimulus for 20 s prior to lysis.

Where [11] appears, read: freeze–thaw lysate of vegetative D. discoideum cells, 3 mg/mL total protein in PBS, no protease inhibitors, first-order fit, ± SD, 3 biological replicates.

Non-standard residues stand in square brackets, D forms with d. Residues, ends and D or L forms follow the SMILES beside them. *: point of attachment. 5FAM = O=C1OC2(c3ccc(O)cc3Oc3cc(O)ccc32)c2ccc(C(=O)*)cc21; 6FAM = O=C1OC2(c3ccc(O)cc3Oc3cc(O)ccc32)c2cc(C(=O)*)ccc21; NMeR = CN[C@@H](CCCNC(=N)N)C(=O)O; NMeA = CN[C@@H](C)C(=O)O

Consider `C[C@H](NC(=O)[C@H](C)NC(=O)[C@H](CCCNC(=N)N)NC(=O)[C@@H]1CCCN1C(=O)[C@H](CCCNC(=N)N)NC(=O)CNC(=O)c1ccc2c(c1)C1(OC2=O)c2ccc(O)cc2Oc2cc(O)ccc21)C(=O)N[C@H](C(=O)N[C@@H](Cc1ccccc1)C(=O)N[C@@H](C)C(=O)N[C@@H](CCC(=O)O)C(=O)NCC(N)=O)[C@@H](C)O` [B-5/I] (6FAM-GRPRAATFAEG-NH2), for which the results for the half-life at 10 μM in series [1] and in series [2] (setting [11]) were 12 ± 4 min and 51 ± 4 min, respectively.

On to `C[C@H](NC(=O)[C@H](Cc1ccccc1)NC(=O)[C@H](CO)NC(=O)[C@H](CO)NC(=O)[C@@H](NC(=O)[C@H](CCCNC(=N)N)NC(=O)[C@@H]1CCCN1C(=O)[C@H](CCCNC(=N)N)NC(=O)CNC(=O)c1ccc2c(c1)C(=O)OC21c2ccc(O)cc2Oc2cc(O)ccc21)[C@@H](C)O)C(=O)N[C@@H](CCC(=O)O)C(=O)NCC(=O)O` [Crosstide] (5FAM-GRPRTSSFAEG-OH), for which the half-life at 10 μM in series [1] came out at 8 ± 1 min; in series [2] (setting [11]), 117 ± 10 min.

`O=c1cc(N2CCOCC2)oc2c(-c3ccccc3)cccc12` [LY294002]: the half-maximal effective concentration (EC50) in the series with PKBA [3] was 15 µM. In addition, the “percent phosphorylation of cAMP-stimulated cells, as % of the untreated phosphorylation levels” value in the series with PKBA [4] is 33–34%.

Turning to `C[C@H](NC(=O)[C@H](CCCNC(=N)N)N(C)C(=O)[C@@H]1CCCN1C(=O)[C@H](CCCNC(=N)N)NC(=O)CNC(=O)c1ccc2c(c1)C1(OC2=O)c2ccc(O)cc2Oc2cc(O)ccc21)C(=O)N[C@@H](Cc1ccccc1)C(=O)N[C@H](C(=O)N[C@@H](Cc1ccccc1)C(=O)N(C)[C@@H](C)C(N)=O)[C@@H](C)O` [VI–B] (6FAM-GRP[NMeR]AFTF[NMeA]-NH2), the phosphorylation rate with PKBA [5] is 1.4 ± 0.2 zmol pg^–1 s^–1; in series [6], 0.02–0.1 zmol pg^–1 s^–1; in series [7], 0.04 zmol pg^–1 s^–1; with PHK5 [8], 4.1 ± 0.9 zmol pg^–1 s^–1. Besides, the half-life stood at 22 ± 4 min in [1] (cells or culture medium) and 184 ± 65 min in [2] (cells or culture medium, freeze–thaw lysate of vegetative D. discoideum cells, 3 mg/mL total protein in PBS, no protease inhibitors, first-order fit, ± SD, 3 biological replicates). In addition, the “initial rate of fragmentation in lysates” value in series [2] (D. discoideum freeze–thaw lysate, based on the first 15 min of each reaction, pmol peptide per mg total protein per second, 3 mg/mL protein) came out at 0.3 ± 0.1 pmol mg^–1 s^–1. Besides, in series [9], the “initial degradation rate in lysates” value worked out at 5.1 ± 0.3 pmol mg^–1 s^–1.

Regarding `Nc1nc2c(ncn2[C@@H]2O[C@@H]3COP(=O)(O)O[C@H]3[C@H]2O)c(=O)[nH]1` [cGMP], in the series on PHK5 [10], the “change in phosphorylation activity toward Crosstide after stimulus” value (“change” below) is given as “None of these stimuli resulted in increased phosphorylation activity”.

As for `NCCc1c[nH]cn1` [histamine], the “change” value with PHK5 [10] is given as “None of these stimuli resulted in increased phosphorylation activity”.

For the molecule `NCCc1c[nH]c2ccc(O)cc12` [serotonin], in the series with PHK5 [10], the “change” value was “None of these stimuli resulted in increased phosphorylation activity”.

Take concavalin A: the “change” value in the series with PHK5 [10] is “None of these stimuli resulted in increased phosphorylation activity”.

As for insulin, the “change” value in the series on PHK5 [10] is “None of these stimuli resulted in increased phosphorylation activity”.

For orientation: half-life means the time needed for the level to fall by half in the phase considered. The EC50 is the midpoint of the concentration-response curve.
